SMILES strings stand for the structures.

For test [1], the system named is HCT-116. Description: Annexin V/Dead Cell assay. The note with it: HCT-116, 2 × IC50, 24 h. In kind it is cell-based, human. An excerpt:
Apoptosis or programmed cell death is an important and active regulatory pathway of cell growth and proliferation. Cells respond to specific induction signals by initiating intracellular processes that result in characteristic physiological changes. Among these are externalization of phosphatidylserine (PS) to the cell surface, cleavage and degradation of specific cellular proteins, compaction and fragmentation of nuclear chromatin, and loss of membrane integrity. Phosphatidylserine (PS) is normally located in the inner part of the cell membrane. In the initial stage of apoptosis, the PS residues which translocated to the extracellular are detected by Annexin V, which is a calcium-dependent phospholipid-binding protein with a high affinity for PS. Annexin V flow cytometric assay was used to evaluate the compounds’ ability to induce apoptosis and influence on cell death. HCT-116 colon carcinoma and A-549 lung adenocarcinoma cells were treated by disulfides 2 and 3.
HCT-116 (colon carcinoma) and A-549 (lung carcinoma) cells (1 × 10^6) were seeded in a six-well plate and were incubated for 24 h. […] After incubation, the cells were harvested by trypsinization, precipitated by centrifugation (3000 rpm), washed with PBS, recentrifuged, and the buffer was removed. DMEM was added to achieve a cell concentration of 400–1000 cells/µL. The Muse Annexin V & Dead Cell Kit reagent (100 µL) was added to the cells and […] for 20 min at room temperature in the dark. The results were recorded on a Muse Cell Analyzer flow cytometer (Merck, Rahway, NJ, USA).

The next test deals with SW-480. Kind of test: MTT assay. In kind it is cell-based, human. The procedure:
(§1) The antiproliferative activity of aromatic oligosulfides 1–6 was determined against human cell lines, including colon carcinoma HCT-116, breast adenocarcinoma MCF-7, lung adenocarcinoma A-549, colorectal carcinoma SW-480, and non-tumourigenic WI-38, using the MTT assay (Table 4). […] However, some selectivity for cancer cells was evident and the IC50 values for non-tumourigenic cells were slightly higher for compounds 1 and 2.
(§2) Cell survival was determined by the MTT [3-(4,5-[…])-2,5-diphenyl tetrazolium bromide] assay by Niks method with small modifications. HCT-116 (colon carcinoma), MCF-7 (breast adenocarcinoma), A-549 (lung adenocarcinoma) and SW-480 (colorectal carcinoma) human cancer cell lines and WI-38 (cell line composed of fibroblasts) were cultured in DMEM (PanEco, Moscow, Russia) with Glutamin (PanEco, Moscow, Russia) and antibiotics (PanEco, Moscow, Russia) in CO2 (5%) at 37 °C. The compounds were dissolved (20 mM) in DMSO and then added to the cell culture medium at the required concentration with a maximum DMSO content of 0.5 v/v%. At these concentrations, DMSO had no effect on cell viability, as was shown in the control experiments. Cells were cultured in 96-well plates (7000 cells/well) and treated with various concentrations (from […]) of the test compounds as well as doxorubicin at 37 °C for 72 h. Cell viability was determined using the MTT assay, which quantified dehydrogenase activity. Then, the cells were incubated at 37 °C for 50 min with a solution of MTT ([…], 5 mg × mL^−1) (Sigma-Aldrich, St. Louis, MO, USA). The supernatant was discarded, and cells were dissolved in DMSO ([…]). The optical density of the solution was measured at 570 nm with use of a multiwall-plate reader (Anthos Zenyth 2000rt, Biochrom, Cambridge, UK), and the percentage of surviving cells was calculated from the absorbance of untreated cells. Each experiment was repeated at least three times, and each concentration was tested in at least three replicates. Data were presented as a graph of the percentage of surviving cells versus the concentration of the test substances. The meanings of 50% inhibition concentration (IC50) with standard deviation were calculated using GraphPad Prism Version 5.03 for Windows (GraphPad Software, San Diego, CA, USA).
(Tetrazolium assays rely on reduction of a dye to a coloured formazan, in cell work by metabolically active cells.)

A further test has as its system MCF-7. Description: MTT assay. Type of test: cell-based, human. Here is the method: as §1, §2
In another test the test system is A-549. Description: MTT assay. Type of test: cell-based, human. The procedure:
as §1, §2

Test [2] has as its system HCT-116. Kind of test: MTT assay. In kind it is cell-based, human. Here is the method: as §1, §2
For test [3] the following is noted: Fe2+ chelating activity; read-out: FIC, IC50 (EDTA activity); cited from earlier work.

For `COc1cccc2c1C(=O)c1c(O)c3c(c(O)c1C2=O)C[C@@](O)(C(=O)CO)C[C@@H]3O[C@H]1C[C@H](N)[C@H](O)[C@H](C)O1` [doxorubicine, doxorubicin, reference compound], in the test with HCT-116 [1], the total apoptotic cells is listed as 17.9%. In addition, the IC50 with SW-480 (Homo sapiens, SW480, 72 h) turned out to be 0.45 ± 0.06 µM; with MCF-7 (Homo sapiens, MCF7, 72 h), 0.28 ± 0.03 µM; in the test with A-549 (Homo sapiens, A549, 72 h) it was 0.24 ± 0.02 µM; in the test with HCT-116 [2] (Homo sapiens, HCT-116, 72 h), 0.65 ± 0.05 µM.

In the case of `O=C([O-])CN(CCN(CC(=O)[O-])CC(=O)O)CC(=O)O.[Na+].[Na+]` [EDTA, reference compound], the IC50 in test [3] is 380 ± 30 µM.

On to `N.N.[Cl][Pt][Cl]` [cisplatin, reference compound], for which the IC50 was 17.6 ± 5.4 µM in the test with SW-480 (72 h), > 30 µM in the test on MCF-7 (72 h), 20.1 ± 5.6 µM in the test on A-549 (72 h) and 9.1 ± 2.3 µM with HCT-116 [2] (72 h).

As usually defined, the IC50 is the midpoint of a concentration-inhibition curve.

The values above are taken from PMC9229798, “Antioxidant Activity and Cytotoxicity of Aromatic Oligosulfides” (Molecules, 2022).
